Key:
[1] = tested on: s.c. human KB xenografts; assay: Targeted drug delivery, tumor growth and survival in SCID mice with KB xenografts; type: in vivo, SCID CB-17 mice
Procedure: Recipient animal and tumor model.
(§1) Delivery of targeted nanoparticle therapeutic. Twice weekly, SCID mice with s.c. KB xenografts, starting on day 4 after tumor implantation, received via the tail vein an injection of either targeted or nontargeted conjugate containing methotrexate, a conjugate without methotrexate, free methotrexate, or saline as a control. The compounds were delivered in a 0.2 mL volume of saline per 20 g of mouse. The single dose of methotrexate delivered each time equaled 0.33 mg/kg. The higher doses of 1.67 and 3.33 mg/kg free methotrexate were also tested. The conjugates were delivered at equimolar concentration of methotrexate calculated based on the number of methotrexate molecules present in a nanoparticle. The conjugate without methotrexate was delivered at equimolar concentration of dendrimer. In the initial trial, six groups of mice with five mice in each group received up to 15 injections. In the follow-up trial, mice received up to 28 injections dependent on their survival. The body weights of the mice were monitored throughout the experiment as an indication of adverse effects of the drug. Histopathology of multiple organs was done at the termination of each trial and each time mouse had to be euthanized due to toxic effects or tumor burden. Tissues from lung, heart, liver, pancreas, spleen, kidney, and tumor were analyzed. Additionally, cells were isolated from tumors, stained with targeted fluorescein-labeled conjugate, and tested for the presence of folic acid receptors using flow cytometer.
Targeted drug delivery to tumor cells through the folate receptor. The efficacy of different doses of conjugates was tested on SCID CB-17 mice bearing s.c. human KB xenografts and was compared with equivalent and higher doses of free methotrexate. Mice were maintained on the folic acid-deficient diet for 3 weeks before injection of the KB tumor cells to achieve circulating levels of folic acid that approach those in human serum and to prevent down-regulation of folate receptors on tumor xenografts (See, Mathias et al., J Nucl Med 29, 1579 (1998)). Six groups of SCID mice with five mice in each group were injected s.c. on one flank with 5×10^6 KB cells in 0.2 mL PBS suspension. The highest total dose of G5-FI-FA-MTX therapeutic used equals 55.0 mg/kg and is equivalent to a 5.0 mg/kg total cumulative dose of free methotrexate (FIG. 29). The therapeutic dose of the conjugate was compared with three cumulative doses of free methotrexate equivalent to 33.3, 21.7, and 5.0 mg/kg accumulated in 10 to 15 injections based on mouse survival. Saline and the conjugate without methotrexate (G5-FI-FA) were used as controls.

[2] = tested on: KB cells; assay: Inhibition of cell growth by total cell protein
Procedure: Cell culture and treatment. KB cells were maintained in folate-free medium containing 10% serum (See, e.g., Quintana et al, Pharm. Res. 19, 1310 (2002)) to provide extracellular FA similar to that found in human serum. Cells were plated in 12-well plates for uptake studies, in 24-well plates for cell growth analysis, and in 96-well plates for XTT assay. Cells were rinsed with FA-free medium containing dialyzed serum and incubated at 37° C. with dendrimer-drug conjugates for the indicated time periods and concentrations. KB cells were also maintained in RPMI medium containing 2 μM FA to obtain cells which express low FAR.
Evaluation of dendrimer cytotoxicity. Cell growth was determined by assay of the total protein in lysates of treated cells using a bicinchoninic acid reagent (PIERCE, and by XTT assay, using a kit from Roche.
Time course and dose dependent inhibition of cell growth. Previous studies have shown that MTX-induced cytotoxicity is detectable in vitro only if the medium is completely deprived of FA (See, e.g., Sobrero & Bertino, Int. J. Cell Cloning 4, 51 (1986)). The effect of the trifunctional dendrimers on cell growth was tested in cells incubated in a FA-deficient medium. Cells were treated with 300 nM conjugates (equivalent of 1500 nM MTX) or 1500 nM free MTX for 1-4 days, and cell proliferation was determined by estimation of cellular protein content. Cells were treated for 2 days with different concentrations of the conjugates or free MTX (the conjugate concentration is given as MTX equivalents, with 5 MTX per dendrimer molecule). KB cells which express high and low FAR were incubated with 30 nM of the dendrimers for 1 hr at 37° C., rinsed, and the fluorescence of cells was determined by flow cytometric analysis (See. e.g., FIG. 21, left panel).
KB cells were treated with 150 or 500 nM MTX in the presence or absence of equimolar concentrations of free FA for 24 h. […] The cells were rinsed to remove the drugs and incubated with fresh medium for an additional 6 d, and total cell protein was determined.

[3] = Toxicity of dendrimer conjugates and free methotrexate in mice (body weight, histopathology); type: in vivo; conditions: occasional periportal lymphocytes, single-cell necrosis
Procedure: as §1
Toxicity of dendrimer conjugates. […] No gross toxicity, either acutely or chronically up to 99 days, was observed regardless of whether the dendrimer conjugate contained methotrexate. The weight was monitored throughout the experiment and no loss of weight was observed; in fact, the animals gained weight. At each time point, a gross examination and histopathology of the liver, spleen, kidney, lung, and heart were done. No morphologic abnormalities were observed on the histopathology examination.
The remaining experimental groups had very uniform body weight fluctuations nonindicative of toxicity when compared with control groups with saline or conjugate without methotrexate.

[4] = Stability of dendrimer in cell culture medium (MTX release; ultrafiltration, XTT readout); type: physicochemical
Procedure: The stability of the dendrimer was tested in cell culture medium to check if MTX was released from the dendrimer prior to its entry into the cells. The G5-FITC-FA-MTX was incubated with cell culture medium for 1, 2, 4 and 24 h, and the incubation medium was filtered using a 10,000-MW cutoff ultrafiltration device. The effect of the retentate and the filtrate on the growth of the KB cells was tested. G5-FITC-FA-MTX was incubated with medium at 2 μM concentration for 24 h. The incubation medium was filtered through a Centricon 10K-MW cutoff filter. The retentate (adjusted to pre-filtration volume) and the filtrate were incubated with KB cells (at 200 nM conjugate, as determined from the concentration of the pre-filtration sample) for 2 days and the XTT assay was performed. Similar results were obtained for the retentate and filtrate obtained from the medium that had been pre-incubated with the dendrimers for 1, 2, and 4 hours. […] There was a slow release of the MTX after 24 h, reaching a maximum of 40-50% release in 1 week.

[5] = 2 μM, up to 24 h in medium, 10K-MW cutoff filter, KB cells 2 days, XTT

Substance: G5-(Ac)82-(FITC)5-(FA)5-MTX5 [G5-FITC-FA-MTX]
- effect on tumor growth ([1]; first trial, up to 15 injections, cumulative 5.0 mg/kg methotrexate equivalents or equimolar dendrimer): as equally effective as the second highest dose of free methotrexate
- survivors at the termination of the trial ([1]; second 99-day trial): two (of eight)
- tumor growth versus G5-FI-MTX, free methotrexate or saline ([1]; second 99-day trial, P<0.05): slower growth of tumors
- cytotoxicity compared with equimolar combinations of free FA and MTX ([2]; 30 and 100 nM conjugate (150 and 500 nM MTX), 24 h then 6 d): similar
- inhibition of cell growth (FIGS. 21 and 22) ([2]; FA-deficient medium, 1-4 days, different concentrations): inhibited cell growth in a time- and dose-dependent fashion
- liver slides versus saline controls [3]: did not differ from that of control animals injected with saline
- cytotoxicity of filtrate after incubation in medium [4, 5]: failed to show any cytotoxicity
- cytotoxicity of retentate after incubation in medium [4, 5]: cytotoxic
- release of MTX, maximum ([4]; slow release after 24 h, in 1 week): 40-50%
